Experiments:
[1] = test system: clinically stable subjects with schizophrenia; test: Clinical Study A (Phase 2a, placebo-controlled): MATRICS Consensus Cognitive Battery (MCCB); type: in vivo, human
Source text: A Phase 2a proof-of-concept (POC) study in clinically stable subjects with schizophrenia who were clinically stable and received stable doses of atypical antipsychotic therapy. The study was a Phase 2, multi-center, randomized, double-blind, placebo-controlled, parallel group study designed to evaluate the safety and efficacy of doses of (4s)-4-(5-phenyl-1,3,4-thiadiazol-2-yloxy)-1-azatricyclo[3.3.1.1^3,7]decane (Compound A) in clinically stable male and female subjects (ages 20 to 55, inclusive) with a Diagnostic and Statistical Manual of Mental Disorders Fourth Edition, Text Revision (DSM-IV-TR) diagnosis of schizophrenia. Psychiatric diagnoses were confirmed using the Mini-International Neuropsychiatric Interview (MINI) version 6.0.0. The criteria for clinical stability was determined by a combination of retrospective data (over the 4 months prior to the start of Screening, which will be supported by clinical records, patient, identified responsible contact person, and physician interviews), and prospective data assessed during the Prospective Stabilization Period of 28 to 42 days duration.
The study was a Phase 2, multi-center, randomized, double-blind, placebo-controlled, parallel group study designed to evaluate the safety and efficacy of doses of (4s)-4-(5-phenyl-1,3,4-thiadiazol-2-yloxy)-1-azatrieyclo[3.3.1.1^3,7]decane, which is also recognized as Compound A, in treating cognitive deficits in subjects with schizophrenia who were clinically stable and receiving one or two atypical antipsychotic medications. Study drug was administered orally.
The study consisted of a screening period of at least 28 and up to 42 days, a 84-day outpatient treatment period, a 14-day post-treatment period, and a post-treatment follow-up period. The screening period consisted of three visits: Screening Visit 1, Screening Visit 2, and Day −1. Upon completion of Day −1 procedures, eligible subjects were randomized through an Interactive Voice Response/Interactive Web-Based (IVR/IWB) system. Subjects were randomized in an equal ratio to one of three treatment groups (placebo, 10 mg Compound A, or 25 mg Compound A).
Subjects were randomized in a 1:1:1 ratio with placebo, 10 mg QD Compound A, of 25 mg Compound A. Each subject was instructed to take study drug once-daily in the morning for 12 weeks. Each daily dose was preferably taken with food. The subject and investigator were blinded to the treatment assignment throughout the study. The treatment assignments for the study subjects are shown below in Table 1.
The primary endpoint was the MCCB composite score, and the primary endpoint analysis was the change on the MCCB composite score from baseline to endpoint versus placebo. Other secondary measures included the MCCB domains, the NSA-16, the CANTAB cognition battery (measured at different time points from the MCCB), and the UPSA-2. The Positive and Negative Syndrome Scale (PANSS) was included to document stability in schizophrenia symptomatology.
The MCCB was developed by a consortium of academic, industry, the Food and Drug Administration (FDA) and National Institute of Mental Health ([…]) members called Measurement and Treatment Research to Improve Cognition in Schizophrenia (MATRICS). The battery was established in a multiple phase process that involved experts identifying cognitive tests in the literature that had shown deficits in schizophrenia, use of factor analysis to identify key domains of cognitive deficits in schizophrenia, and then empirically identifying the best tests for each domain based on reliability, validity and feasibility for use in clinical trials. The FDA has endorsed the MCCB as an appropriate outcome measure for Phase 3 CDS trials. […]

[2] = test system: clinically stable subjects with schizophrenia; test: as above; type: in vivo, human; settings: Phase 2a study; printed indication AD
[3] = 25 mg QD, Change to Week 2, ITT
[4] = 25 mg QD, Change to Week 6, ITT
[5] = 25 mg QD, Change to Week 12, ITT

c1ccc(-c2nnc(O[C@@H]3C4CC5C[C@H]3C[N@](C5)C4)s2)cc1 [Compound A, (4s)-4-(5-phenyl-1,3,4-thiadiazol-2-yloxy)-1-azatricyclo[3.3.1.1^3,7]decane]
MCCB Reasoning and Problem Solving: LS Mean (SE) of Change from Baseline [1, 3]: 1.95 (0.92) T-score | MCCB Reasoning and Problem Solving: Observed Mean (SD) of change from baseline [1, 3]: 2.00 (6.25) T-score | MCCB Attention/Vigilance: Difference from Placebo LS Mean (SE) of Difference [1, 4]: 1.71 (1.41) T-score | MCCB Attention/Vigilance: LS Mean (SE) of Change from Baseline [1, 4]: 0.91 (1.06) T-score | MCCB Attention/Vigilance: Observed Mean (SD) of change from baseline [1, 4]: 1.09 (9.04) T-score | MCCB Reasoning and Problem Solving: Difference from Placebo LS Mean (SE) of Difference [1, 4]: 2.22 (1.08) T-score | MCCB Reasoning and Problem Solving: LS Mean (SE) of Change from Baseline [1, 4]: 2.18 (0.81) T-score | MCCB Reasoning and Problem Solving: Observed Mean (SD) of change from baseline [1, 4]: 2.11 (7.06) T-score | MCCB Social Cognition: Difference from Placebo LS Mean (SE) of Difference [1, 4]: −1.21 (1.40) T-score | MCCB Social Cognition: LS Mean (SE) of Change from Baseline [1, 4]: 0.30 (1.05) T-score | MCCB Social Cognition: Observed Mean (SD) of change from baseline [1, 4]: 0.06 (8.00) T-score | MCCB Speed of Processing: Difference from Placebo LS Mean (SE) of Difference [1, 4]: 1.84 (1.08) T-score | MCCB Speed of Processing: LS Mean (SE) of Change from Baseline [1, 4]: 2.24 (0.80) T-score | MCCB Speed of Processing: Observed Mean (SD) of change from baseline [1, 4]: 2.56 (5.36) T-score | MCCB Verbal Learning: Difference from Placebo LS Mean (SE) of Difference [1, 4]: 0.49 (1.18) T-score | MCCB Verbal Learning: LS Mean (SE) of Change from Baseline [1, 4]: 0.56 (0.88) T-score | MCCB Verbal Learning: Observed Mean (SD) of change from baseline [1, 4]: 0.41 (9.24) T-score | MCCB Visual Learning: Difference from Placebo LS Mean (SE) of Difference [1, 4]: −1.00 (1.65) T-score | MCCB Visual Learning: LS Mean (SE) of Change from Baseline [1, 4]: −1.15 (1.22) T-score | MCCB Visual Learning: Observed Mean (SD) of change from baseline [1, 4]: −1.06 (9.04) T-score | MCCB Working Memory: Difference from Placebo LS Mean (SE) of Difference [1, 4]: 2.39 (1.08) T-score | MCCB Working Memory: LS Mean (SE) of Change from Baseline [1, 4]: 1.88 (0.81) T-score | MCCB Working Memory: Observed Mean (SD) of change from baseline [1, 4]: 1.69 (7.43) T-score | MCCB Attention/Vigilance: Difference from Placebo LS Mean (SE) of Difference [1, 5]: 2.85 (1.57) T-score | MCCB Attention/Vigilance: LS Mean (SE) of Change from Baseline [1, 5]: 0.86 (1.16) T-score | MCCB Attention/Vigilance: Observed Mean (SD) of change from baseline [1, 5]: 0.88 (9.09) T-score | MCCB Social Cognition: Difference from Placebo LS Mean (SE) of Difference [1, 5]: −0.40 (1.61) T-score | MCCB Social Cognition: LS Mean (SE) of Change from Baseline [1, 5]: 0.19 (1.19) T-score | MCCB Social Cognition: Observed Mean (SD) of change from baseline [1, 5]: −0.14 (10.81) T-score | MCCB Speed of Processing: Difference from Placebo LS Mean (SE) of Difference [1, 5]: 0.37 (1.26) T-score | MCCB Speed of Processing: LS Mean (SE) of Change from Baseline [1, 5]: 1.66 (0.93) T-score | MCCB Speed of Processing: Observed Mean (SD) of change from baseline [1, 5]: 1.73 (7.28) T-score | MCCB Verbal Learning: Difference from Placebo LS Mean (SE) of Difference [1, 5]: 1.80 (1.17) T-score | MCCB Verbal Learning: LS Mean (SE) of Change from Baseline [1, 5]: 2.27 (0.87) T-score | MCCB Verbal Learning: Observed Mean (SD) of change from baseline [1, 5]: 2.24 (8.03) T-score | MCCB Visual Learning: Difference from Placebo LS Mean (SE) of Difference [1, 5]: 1.27 (1.68) T-score | MCCB Visual Learning: LS Mean (SE) of Change from Baseline [1, 5]: 0.83 (1.23) T-score | MCCB Visual Learning: Observed Mean (SD) of change from baseline [1, 5]: 1.24 (8.49) T-score | MCCB Working Memory: Difference from Placebo LS Mean (SE) of Difference [1, 5]: 2.03 (1.25) T-score | MCCB Working Memory: LS Mean (SE) of Change from Baseline [1, 5]: 2.14 (0.93) T-score | MCCB Working Memory: Observed Mean (SD) of change from baseline [1, 5]: 1.98 (6.84) T-score | MCCB composite score: LS mean change from baseline ([1]; 25 mg, baseline to Week 6, MNIRIVI analysis, placebo LS mean +0.49): +1.27 | MCCB domains with LS mean difference versus placebo greater in both dose groups ([1]; Week 6, 10 mg and 25 mg): 5 of the 7 MCCB domains | MCCB composite score: statistical significance of difference from placebo ([1]; each dose group (10 mg, 25 mg), Week 6): did not reach the level of statistical significance | Effect on cognition ([1]; patients with schizophrenia, summary statement): precognitive effects | Signal for efficacy in symptomatic treatment [2]: demonstrated a signal for efficacy
